According to EP3981864A1, “DETERGENT COMPOSITION” (priority 2020, dated 2022):

Target: T1, Pisum sativum αDOX (SEQ ID NO: 4), fatty acid alpha-dioxygenase, Q5GQ66, N-terminal His-tag variant SEQ ID NO: 255 (Pisum sativum, UniProt Q5GQ66)
T1 construct: made in house; host or cells: Escherichia coli BL21 (DE3), pET30a
T1 sequence (Q5GQ66 1-643): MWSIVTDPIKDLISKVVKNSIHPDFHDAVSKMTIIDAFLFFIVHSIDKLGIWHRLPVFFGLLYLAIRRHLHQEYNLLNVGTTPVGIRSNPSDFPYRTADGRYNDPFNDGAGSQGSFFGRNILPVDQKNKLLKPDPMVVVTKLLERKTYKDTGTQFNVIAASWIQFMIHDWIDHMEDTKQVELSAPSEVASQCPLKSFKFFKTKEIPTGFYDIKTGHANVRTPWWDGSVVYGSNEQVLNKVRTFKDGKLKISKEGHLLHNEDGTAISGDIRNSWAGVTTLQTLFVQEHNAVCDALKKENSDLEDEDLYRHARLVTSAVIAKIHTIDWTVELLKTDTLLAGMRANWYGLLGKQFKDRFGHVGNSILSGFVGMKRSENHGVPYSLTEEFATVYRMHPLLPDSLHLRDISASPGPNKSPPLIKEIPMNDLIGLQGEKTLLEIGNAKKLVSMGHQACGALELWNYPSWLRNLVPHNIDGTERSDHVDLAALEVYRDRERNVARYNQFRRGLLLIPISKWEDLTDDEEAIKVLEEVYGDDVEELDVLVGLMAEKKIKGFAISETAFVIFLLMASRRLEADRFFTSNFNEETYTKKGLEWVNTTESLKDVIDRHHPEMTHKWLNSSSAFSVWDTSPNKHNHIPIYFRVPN
Test: Alpha-dioxygenase activity assay (oxygen consumption, TON)
Format: biochemical
Settings: fatty acid 100 µM, enzyme 6 ppm, 50 mM HEPES pH 9.0, 37°C; initial rate of oxygen consumption / enzyme concentration
Description: Pisum sativum αDOX (SEQ ID NO: 4) is a fatty acid alpha-dioxygenase that converts fatty acids into the corresponding 2-hydroperoxy fatty acids and is included as an example of the present invention. A codon optimized gene (SEQ ID NO: 254) encoding for an alpha-dioxygenase variant (SEQ ID NO: 255), including an N-terminal amino acid sequence containing a His-tag was designed and synthesized by Genscript. After gene synthesis, the protein was expressed and purified. In brief, the complete synthetic gene sequence was subcloned into a pET30a vector using the NdeI/HindIII cloning sites. For heterologous expression, Escherichia coli BL21 (DE3) cells were transformed with the recombinant plasmid and a single colony was inoculated into LB medium containing kanamycin (50 mg/L). A pre-starter culture was then inoculated into flasks containing Magic Media (Thermo Fisher, Catalog # K6803) supplemented with kanamycin (50 mg/L) and incubated at 16 °C for 72 h. At an OD600nm = 0.5 - 1.0, 5-aminolevulinic acid (final concentration 0.5 mM) was added. Cells were harvested by centrifugation at 5000 rpm and 4°C and the pellet was lysed using a bacterial cell lysis buffer (B-PER - Themo Fisher, Waltham, MA). After centrifugation, the supernatant was collected, and the protein was purified by one-step purification using HisPur™ Ni-NTA Spin Columns (Thermo Scientific, Catalog # 88226) and standard protocols known in the art. The protein was concentrated using a 10 kDa MW cutoff Amicon Ultra centrifugal filter unit (Millipore Sigma, Catalog# UFC901024), followed by desalting using a disposable PD-10 desalting column (GE Healthcare Life Sciences, Catalog# 17085101) and a buffer containing 50 mM Tris-HCl, 500 mM NaCl, and 10% Glycerol at pH 8.0. […]
Reactions with alpha-dioxygenases were performed as follows. […] The reaction was incubated for up to 10 minutes at 37°C with 200 rpm agitation and the conversion was monitored using an oxygen sensor. The TON (in s-1) were calculated as the ratio between the initial rate of oxygen consumption (in µM/s) and the concentration of enzyme (in µM). […]

`CCCCCCCC/C=C\CCCCCCCC(=O)O` [Oleic Acid] was tested, and the “Oleic Acid, TON” value was 1.40 s⁻¹.
With `CCCCCCCCCCCCCCCC(=O)O` [Palmitic Acid] the “Palmitic Acid, TON” value was 1.92 s⁻¹.
In the case of `CCCCCCCCCCCCCCCCCC(=O)O` [Stearic Acid], the “Stearic Acid, TON” value is reported as 0.80 s⁻¹.
